# Key:
# TLR7 [1] = target: T1, TLR7 (Mus musculus, UniProt P58681); assay: In vivo inhibition of loxoribine-mediated cytokine induction in mice; set-up: from tissue; host or cells: whole animal: female Balb/C mice, plasma cytokines; species or system Balb/C mice; settings: 100 μg formulated RNA IV 2 h prior to 1 mg Lox
# T1 sequence (P58681 27-1050): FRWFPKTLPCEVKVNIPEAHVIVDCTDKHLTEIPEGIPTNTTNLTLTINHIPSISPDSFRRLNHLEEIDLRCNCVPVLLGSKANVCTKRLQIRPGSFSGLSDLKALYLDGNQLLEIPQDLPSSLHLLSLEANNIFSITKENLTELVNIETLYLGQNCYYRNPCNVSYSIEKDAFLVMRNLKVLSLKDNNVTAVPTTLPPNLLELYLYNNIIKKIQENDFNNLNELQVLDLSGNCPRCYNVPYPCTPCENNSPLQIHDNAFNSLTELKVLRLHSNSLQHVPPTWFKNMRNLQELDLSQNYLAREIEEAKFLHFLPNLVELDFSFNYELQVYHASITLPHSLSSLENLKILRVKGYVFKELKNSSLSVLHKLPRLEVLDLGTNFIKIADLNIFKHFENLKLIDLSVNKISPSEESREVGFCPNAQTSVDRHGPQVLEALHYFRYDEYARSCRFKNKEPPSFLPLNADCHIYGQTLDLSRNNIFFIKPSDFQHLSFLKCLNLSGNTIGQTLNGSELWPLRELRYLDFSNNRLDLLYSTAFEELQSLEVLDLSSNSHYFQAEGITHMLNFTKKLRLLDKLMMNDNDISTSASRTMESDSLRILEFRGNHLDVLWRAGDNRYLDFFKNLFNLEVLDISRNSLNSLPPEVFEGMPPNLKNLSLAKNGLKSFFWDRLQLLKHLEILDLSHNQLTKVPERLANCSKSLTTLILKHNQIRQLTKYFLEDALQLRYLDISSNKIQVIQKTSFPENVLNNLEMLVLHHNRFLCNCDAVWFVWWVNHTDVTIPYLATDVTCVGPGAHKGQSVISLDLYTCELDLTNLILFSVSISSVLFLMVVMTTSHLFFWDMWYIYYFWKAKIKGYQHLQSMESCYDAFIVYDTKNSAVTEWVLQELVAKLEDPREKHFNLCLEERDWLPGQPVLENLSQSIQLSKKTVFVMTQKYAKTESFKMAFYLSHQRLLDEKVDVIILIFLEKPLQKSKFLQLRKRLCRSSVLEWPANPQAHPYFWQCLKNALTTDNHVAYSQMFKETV
# Experimental: (§1) Cytokine ELISA. All cytokines were quantified using sandwich ELISA kits according to the manufacturer's instructions. These were mouse and human IFN-α (PBL Biomedical; Piscataway, N.J.) and IL-6 (eBioscience; San Diego, Calif.).
# (§2) In Vivo Cytokine Induction. Animal studies were performed at Protiva Biotherapeutics in accordance with Canadian Council on Animal Care guidelines and following protocol approval by the local Animal Care and Use Committee. Female Balb/C mice were subjected to a two-week quarantine and acclimation period prior to use at six to eight-weeks of age. RNA formulations were administered by standard injection in the lateral tail vein in 0.2 ml PBS. Six hours after injection, blood was collected by cardiac puncture and processed as plasma for cytokine analysis. In experiments studying inhibition of cytokine induction by loxoribine, formulated RNA (100 μg) was administered IV 2 h prior to IV administration of 1 mg loxoribine in PBS. Blood was collected by cardiac puncture 2 h after administration of loxoribine and processed as plasma for cytokine analysis.
# TLR9 = target: T2, TLR9 (Mus musculus, UniProt Q9EQU3); assay: CpG ODN (TLR9 agonist)-induced IFN-α in murine Flt3L-derived dendritic cells; type: cell-based; settings: murine Flt3L cultures; phosphodiester backbone; formulated in lipid nanoparticles
# T2 construct: endogenous in cells; host or cells: Flt3L-derived dendritic cells cultured from bone marrow of female Balb/C mice
# T2 sequence (Q9EQU3 26-1032): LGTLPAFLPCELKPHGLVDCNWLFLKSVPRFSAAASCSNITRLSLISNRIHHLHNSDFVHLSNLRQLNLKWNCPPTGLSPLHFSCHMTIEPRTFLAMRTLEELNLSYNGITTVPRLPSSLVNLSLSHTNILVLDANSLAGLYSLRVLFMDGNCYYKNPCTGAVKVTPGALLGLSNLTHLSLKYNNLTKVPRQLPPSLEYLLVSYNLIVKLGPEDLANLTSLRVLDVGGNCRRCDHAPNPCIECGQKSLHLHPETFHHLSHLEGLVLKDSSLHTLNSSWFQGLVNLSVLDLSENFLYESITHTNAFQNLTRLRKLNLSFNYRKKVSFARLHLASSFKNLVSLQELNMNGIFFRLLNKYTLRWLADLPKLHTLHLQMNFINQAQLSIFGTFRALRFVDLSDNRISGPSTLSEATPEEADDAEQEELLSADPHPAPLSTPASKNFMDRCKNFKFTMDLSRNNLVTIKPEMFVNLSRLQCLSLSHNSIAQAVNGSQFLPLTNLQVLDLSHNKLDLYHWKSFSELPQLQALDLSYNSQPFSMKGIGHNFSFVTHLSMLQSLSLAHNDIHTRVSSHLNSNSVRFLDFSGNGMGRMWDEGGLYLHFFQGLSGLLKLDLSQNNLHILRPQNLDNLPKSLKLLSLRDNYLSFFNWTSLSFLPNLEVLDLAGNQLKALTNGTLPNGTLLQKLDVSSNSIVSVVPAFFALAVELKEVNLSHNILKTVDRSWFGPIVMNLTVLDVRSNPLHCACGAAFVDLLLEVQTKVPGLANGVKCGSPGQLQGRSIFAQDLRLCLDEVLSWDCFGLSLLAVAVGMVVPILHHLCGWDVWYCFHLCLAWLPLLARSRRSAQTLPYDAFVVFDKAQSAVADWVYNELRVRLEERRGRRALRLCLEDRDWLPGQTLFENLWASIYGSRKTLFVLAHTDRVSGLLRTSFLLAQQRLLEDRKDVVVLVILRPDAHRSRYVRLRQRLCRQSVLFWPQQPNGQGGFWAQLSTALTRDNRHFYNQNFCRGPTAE
# Experimental: (§3) Lipid Encapsulation of RNA and ODN. RNA or ODN were encapsulated in liposomes by a process of spontaneous vesicle formation as described in Judge et al., supra, and Jeffs et al., Pharm. Res., 22:362-372 (2005).
# Flt3L-derived dendritic cells (DC) were generated as described in Gilliet et al., J. Exp. Med., 195:953-958 (2002), using 100 ng/ml murine Flt3-ligand (Peprotech) supplemented media. Femurs and tibiae of female Balb/C mice were isolated and rinsed in sterile PBS. The ends of bones were cut and marrow harvested in complete media (RPMI 1640, 10% heat inactivated FBS, 1% penicillin/streptomycin, 2 mM L-glutamine, 1 mM sodium pyruvate, 25 mM HEPES, 50 μM 2-mercaptoethanol). Bone marrow cells were passed through a 70 μm strainer and centrifuged at 1000 rpm for 7 min. and resuspended in complete media supplemented with 100 ng/ml murine Flt3L to 2×10^6 cells/ml. 2 ml of cells were seeded in 6-well plates and 1 ml fresh media was added every two to three days. On day 9 of culture, non-adherent cells were washed in complete media and plated into 96-well plates at concentrations ranging from 0.5 to 2.5×10^5 cells/well.
# (§4) Loxoribine (InvivoGen; San Diego, Calif.), polyIC (Sigma-Aldrich; St. Louis, Mo.), and formulated nucleic acids were diluted in PBS and added to either human PBMC or Flt3L DC cultures. Cells were incubated 24 h at 37° C. before supernatants were assayed for cytokines by ELISA.
# as §1
# TLR7/8 = assay: Cytokine induction in human PBMCs by immunostimulatory RNA, alone or co-formulated with modified ssRNA in the same SNALP/lipid particle; type: cell-based; settings: human PBMC cultures; lipid-formulated RNA alone; doses 0.1 to 3 μg/ml
# Experimental: All RNA molecules used in this study were heated at 90° C. for 3 min. and then placed at 37° C. for 60 min. Non-denaturing PAGE analysis on a 20% polyacrylamide gel was performed to confirm that ssRNA molecules were intact and that no duplexes had formed upon heating. The RNA molecules were encapsulated in a SNALP formulation comprising PEG-cDMA:DLinDMA:cholesterol:DSPC in a 2:40:48:10 mol % ratio (2:40 SNALP), prepared using a syringe press process.
# Fresh human peripheral blood mononuclear cells (PBMCs) were isolated and seeded at about 3×10^5 cells/well in a total volume of 180 μl. Next, 20 μl of the appropriate SNALP diluted in PBS or 10 μl of naked TLR agonist were added to the PBMCs. For time course experiments, PBMCs were pretreated with UmodS ssRNA or a control and the appropriate naked TLR agonist was added at 0, 0.5, or 2 hours after pretreatment. When the SNALP and naked TLR agonist were added separately, the SNALP was added first followed by the naked TLR agonist. At t=24 hr., the cell supernatant was harvested and IFN-α and/or IL-6 levels were determined using ELISA.
# The ssRNA molecules used in this study were heated at 90° C. for 3 min. and then placed at 37° C. for 60 min to disrupt any potential secondary structure. Non-denaturing PAGE analysis on a 20% polyacrylamide gel was performed to confirm that ssRNA molecules were intact and that no duplexes had formed upon heating. siRNA duplexes were prepared by annealing equimolar concentrations of two deprotected and desalted ssRNA oligonucleotides using standard procedures. Formation of annealed siRNA duplexes was confirmed by non-denaturing PAGE analysis on a 20% polyacrylamide gel. The RNA molecules were encapsulated in a 2:40 SNALP formulation prepared using a syringe press process.
# Fresh human peripheral blood mononuclear cells (PBMCs) were isolated and seeded at about 3×10^5 cells/well in a total volume of 180 μl. Next, 20 μl of the appropriate SNALP diluted in PBS were added to the PBMCs. At t=24 hr., the cell supernatant was harvested and IFN-α and/or IL-6 levels were determined using an enzyme-linked immunosorbent assay (ELISA). For example, IFN-α and IL-6 levels can be measured using a sandwich ELISA kit available from PBL Biomedical (Piscataway, N.J.) and eBioscience (San Diego, Calif.), respectively.
# as §3
# Cell Isolation and Culture. Human PBMCs were isolated from whole blood of healthy donors by a standard Ficoll-Hypaque density centrifugation. Blood was diluted 1:1 with PBS, layered onto Ficoll-Paque Plus, and centrifuged at 1600 RPM for 30 min. PBMCs were washed in PBS twice followed by resuspension in complete media (RPMI 1640, 10% heat inactivated FBS, 2 mM L-glutamine, and 1% penicillin/streptomycin). PBMCs were plated at 2.5×10^5 cells/well in 96 well plates for cytokine induction assays.
# as §4, §1
# TLR7 [2] = target: T1, TLR7; assay: In vivo cytokine induction by formulated ssRNA in mice; set-up: from tissue; host or cells: whole animal: female Balb/C mice, plasma cytokines; species or system Balb/C mice; settings: IV, plasma 6 h after administration
# Experimental: as §1, §2
substance,measurement,setting,value
"GFP-S: native non-stimulatory ssRNA: GGCUACGUCCAGGAGCGCAUU (RNA, backbone not given here) [reference compound]",response to loxoribine (plasma IFN-α and IL-6) after pre-treatment,TLR7 [1],robust response
ODN 1826,immunostimulatory activity of the ODN alone,TLR9,highly immunostimulatory
"ODN 6295: CpG Type A ODN, phosphodiester: TAACGTTGAGGGGCAT (DNA, all phosphodiester, methylation of C not given here; formulated in lipid nanoparticles)",immunostimulatory activity of the ODN alone,TLR9,highly immunostimulatory
"ODN M362: CpG Type C ODN, phosphodiester: TCGTCGTCGTTCGAACGACGTTGAT (DNA, all phosphodiester, methylation of C not given here; formulated in lipid nanoparticles)",immunostimulatory activity of the ODN alone,TLR9,highly immunostimulatory
βgal-AS: immunostimulatory ssRNA: AAAUCGCUGAUUUGUGUAGUU (chemistry not given here) [reference compound],IFN-α production induced by the RNA alone,TLR7/8,induced high levels of IFN-α
same,plasma IFN-α after administration of the formulated RNA alone,TLR7 [2],significant elevations
same,plasma IL-6 after administration of the formulated RNA alone,TLR7 [2],significant elevations

# Source: patent US20080171716A1, “NUCLEIC ACID MODULATION OF TOLL-LIKE RECEPTOR-MEDIATED IMMUNE STIMULATION” (Protiva Biotherapeutics, Inc., priority 2006, published 2008)
